According to patent US11174268B2, “Benzenesulfonamide compouds and their use as therapeutic agents” (Xenon Pharmaceuticals Inc., priority 2016, dated 2021):
Counter-ions that a name gives are not always drawn. Like-named read-outs stand apart in the source and are kept apart here.

How the values were obtained:
NaV1.6 = NaV1.6 (Homo sapiens (Human), UniProt Q9UQD0); test: Sodium Influx Assay (Flux), NaV1.6; type: cell-based; settings: Trex HEK293 cells, ANG2 dye, inactivated state;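 also: Tetracycline-induced cells, compounds applied for one hour at room temperature with modulators holding channels open, IC50 from percent inhibition of sodium influx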
NaV1.1 = NaV1.1 (Homo sapiens (Human), UniProt P35498); test: Sodium Influx Assay (Flux), NaV1.1; type: cell-based; settings: Trex HEK293 cells, ANG2 dye, inactivated state;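 also: channels co-expressed with human β1 subunit and held open by modulators, cells exposed to compounds for one hour at room temperature, IC50 from percent inhibition of influx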
NaV1.5 = NaV1.5 (Homo sapiens (Human), UniProt Q14524); test: Sodium Influx Assay (Flux), NaV1.5
Chain of NaV1.5 (Q14524 other isoform, or with tags, fused parts or gaps): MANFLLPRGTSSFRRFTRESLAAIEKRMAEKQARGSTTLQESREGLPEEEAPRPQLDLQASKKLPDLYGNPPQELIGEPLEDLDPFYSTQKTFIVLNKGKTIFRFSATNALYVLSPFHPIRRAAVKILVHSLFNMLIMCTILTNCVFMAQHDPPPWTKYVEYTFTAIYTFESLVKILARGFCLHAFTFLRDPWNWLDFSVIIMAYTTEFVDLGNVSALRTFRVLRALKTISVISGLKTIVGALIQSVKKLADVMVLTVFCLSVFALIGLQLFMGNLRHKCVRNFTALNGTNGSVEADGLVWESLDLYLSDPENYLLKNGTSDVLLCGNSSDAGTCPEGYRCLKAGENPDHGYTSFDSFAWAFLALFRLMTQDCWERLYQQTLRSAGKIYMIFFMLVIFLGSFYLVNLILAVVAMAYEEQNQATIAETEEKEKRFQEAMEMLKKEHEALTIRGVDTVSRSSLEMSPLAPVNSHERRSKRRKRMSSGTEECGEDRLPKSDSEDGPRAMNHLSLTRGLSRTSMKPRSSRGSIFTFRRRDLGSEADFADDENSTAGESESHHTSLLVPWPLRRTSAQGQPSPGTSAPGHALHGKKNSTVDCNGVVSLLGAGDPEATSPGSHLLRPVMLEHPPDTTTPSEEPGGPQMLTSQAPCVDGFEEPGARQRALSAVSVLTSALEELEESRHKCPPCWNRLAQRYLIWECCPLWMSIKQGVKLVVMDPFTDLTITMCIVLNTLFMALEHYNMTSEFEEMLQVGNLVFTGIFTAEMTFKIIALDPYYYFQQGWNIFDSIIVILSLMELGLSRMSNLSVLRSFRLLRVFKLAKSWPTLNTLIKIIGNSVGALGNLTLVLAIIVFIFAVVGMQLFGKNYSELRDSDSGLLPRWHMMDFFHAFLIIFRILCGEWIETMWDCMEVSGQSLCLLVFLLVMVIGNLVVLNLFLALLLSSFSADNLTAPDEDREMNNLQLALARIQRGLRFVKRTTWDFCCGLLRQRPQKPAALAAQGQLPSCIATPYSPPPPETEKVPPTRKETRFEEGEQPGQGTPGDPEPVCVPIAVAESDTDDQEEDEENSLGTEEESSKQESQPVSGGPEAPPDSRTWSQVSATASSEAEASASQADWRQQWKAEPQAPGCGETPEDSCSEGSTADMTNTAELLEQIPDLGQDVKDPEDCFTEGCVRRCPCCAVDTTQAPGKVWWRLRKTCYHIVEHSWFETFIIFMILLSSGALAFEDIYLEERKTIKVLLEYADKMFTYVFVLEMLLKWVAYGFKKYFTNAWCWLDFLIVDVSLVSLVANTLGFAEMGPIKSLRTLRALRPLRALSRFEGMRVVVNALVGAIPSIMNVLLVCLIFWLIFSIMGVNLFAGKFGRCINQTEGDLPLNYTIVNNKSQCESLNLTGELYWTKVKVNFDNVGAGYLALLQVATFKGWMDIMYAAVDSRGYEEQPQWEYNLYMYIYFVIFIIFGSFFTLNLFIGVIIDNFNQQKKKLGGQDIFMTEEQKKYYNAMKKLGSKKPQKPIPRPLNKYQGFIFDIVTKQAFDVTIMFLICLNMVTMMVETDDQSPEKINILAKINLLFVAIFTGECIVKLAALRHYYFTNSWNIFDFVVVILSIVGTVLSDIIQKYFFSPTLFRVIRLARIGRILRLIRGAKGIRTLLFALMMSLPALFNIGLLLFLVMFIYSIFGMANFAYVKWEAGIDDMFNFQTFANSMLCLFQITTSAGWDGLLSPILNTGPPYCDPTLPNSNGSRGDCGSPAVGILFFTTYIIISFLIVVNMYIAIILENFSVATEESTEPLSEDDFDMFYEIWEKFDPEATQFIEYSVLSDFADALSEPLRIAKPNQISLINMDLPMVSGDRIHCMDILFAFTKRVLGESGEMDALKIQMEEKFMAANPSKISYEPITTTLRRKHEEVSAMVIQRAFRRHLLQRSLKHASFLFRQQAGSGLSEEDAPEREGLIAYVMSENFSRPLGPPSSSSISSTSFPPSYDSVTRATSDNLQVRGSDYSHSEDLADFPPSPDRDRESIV

[1] = read-out: Flux NaV1.5 IC50, Trex HEK293 cells, ANG2 dye, inactivated state

Compound	IC50 (NaV1.6) [µM]	IC50 (NaV1.1) [µM]	IC50 (NaV1.5; [1]) [µM]	IC50 (NaV1.5) [µM]
2,6-difluoro-4-((2-fluoro-6-((3-hydroxy-3-methylazetidin-1-yl)methyl)benzyl)amino)-N-(thiazol-4-yl)benzenesulfonamide formate [Example 169]	0.011	6.38	29	
4-((2-((3-(difluoromethyl)azetidin-1-yl)methyl)-6-fluorobenzyl)amino)-2,6-difluoro-N-(thiazol-4-yl)benzenesulfonamide formate [Example 168]	0.12	17.7	21.7	
C[C@@H](Oc1ccc(S(=O)(=O)Nc2ncns2)cc1Cl)c1ccccc1 (racemic) [Example 87, (R) and (S)-3-chloro-4-(1-phenylethoxy)-N-(1,2,4-thiadiazol-5-yl)benzenesulfonamide]	8.6	≥ 30		24.7
C[C@H](Nc1cc(F)c(S(=O)(=O)Nc2nccs2)cc1Cl)c1cccc2ccccc12 [Example 2, (S)-5-chloro-2-fluoro-4-((1-(naphthalen-1-yl)ethyl)amino)-N-(thiazol-2-yl)benzenesulfonamide]	5.02	16	8.25	
C[C@H](Nc1cc(F)c(S(=O)(=O)Nc2nccs2)cc1Cl)c1cccc(C(F)(F)F)c1 [Example 3, (S)-5-chloro-2-fluoro-N-(thiazol-2-yl)-4-((1-(3-(trifluoromethyl)phenyl)ethyl)amino)benzenesulfonamide]	0.679	3.38	5.25	
C[C@H](Nc1cc(F)c(S(=O)(=O)Nc2cscn2)cc1Cl)c1cccc(Cl)c1F [Example 6, (S)-5-chloro-4-((1-(3-chloro-2-fluorophenyl)ethyl)amino)-2-fluoro-N-(thiazol-4-yl)benzenesulfonamide]	3.38	3.76	5.52	
C[C@H](Nc1cc(F)c(S(=O)(=O)Nc2nccs2)cc1Cl)c1cccc(Br)c1 [Example 7, (S)-4-((1-(3-bromophenyl)ethyl)amino)-5-chloro-2-fluoro-N-(thiazol-2-yl)benzenesulfonamide]	0.376	3	9.68	
C[C@H](Nc1cc(F)c(S(=O)(=O)Nc2nccs2)cc1Cl)c1ccc(Cl)cc1 [Example 14, (S)-5-chloro-4-((1-(4-chlorophenyl)ethyl)amino)-2-fluoro-N-(thiazol-2-yl)benzenesulfonamide]	1.79	4.65	14.4	
C[C@H](Nc1cc(F)c(S(=O)(=O)Nc2nccs2)cc1Cl)c1ccc2ccccc2c1 [Example 15, (S)-5-chloro-2-fluoro-4-((1-(naphthalen-2-yl)ethyl)amino)-N-(thiazol-2-yl)benzenesulfonamide]	7.15	9.41	23.6	
O=S(=O)(Nc1cscn1)c1cc(Cl)c(NC2(c3ccccc3)CCC2)cc1F [Example 18, 5-chloro-2-fluoro-4-((1-phenylcyclobutyl)amino)-N-(thiazol-4-yl)benzenesulfonamide]	3.35	8.37	11.9	
C[C@H](Nc1c(Cl)cc(S(=O)(=O)Nc2nccs2)cc1Cl)c1ccccc1F [Example 21, (S)-3,5-dichloro-4-((1-(2-fluorophenyl)ethyl)amino)-N-(thiazol-2-yl)benzenesulfonamide]	3.67	3.63	2.89	
C[C@H](Nc1cc(F)c(S(=O)(=O)Nc2cccc(F)n2)cc1Cl)c1ccccc1Cl [Example 23, (S)-5-chloro-4-((1-(2-chlorophenyl)ethyl)amino)-2-fluoro-N-(6-fluoropyridin-2-yl)benzenesulfonamide]	1.52	5.4	4.09	
C[C@H](Nc1ccc(S(=O)(=O)Nc2cscn2)cc1Cl)c1ccccc1 [Example 24, (S)-3-chloro-4-((1-phenylethyl)amino)-N-(thiazol-4-yl)benzenesulfonamide]	4.09	5.85	8.32	
O=S(=O)(Nc1cscn1)c1cc(Cl)c(OC2CCc3c2cccc3C(F)(F)F)cc1F (stereo not drawn) [Example 29, 5-chloro-2-fluoro-N-(thiazol-4-yl)-4-((4-(trifluoromethyl)-2,3-dihydro-1H-inden-1-yl)oxy)benzenesulfonamide]	30	30	24.6	
C[C@H](Nc1cc(F)c(S(=O)(=O)Nc2nccs2)cc1Cl)c1cc(Cl)cc(Cl)c1 [Example 51, (S)-5-chloro-4-((1-(3,5-dichlorophenyl)ethyl)amino)-2-fluoro-N-(thiazol-2-yl)benzenesulfonamide]	10.8	4.27	20.6	
CCC(Nc1cc(F)c(S(=O)(=O)Nc2nccs2)cc1Cl)c1ccc2c(c1)CCCC2 (stereo not drawn) [Example 55, 5-chloro-2-fluoro-4-((1-(5,6,7,8-tetrahydronaphthalen-2-yl)propyl)amino)-N-(thiazol-2-yl)benzenesulfonamide]	20.7	16.1	21.3	
O=S(=O)(Nc1cscn1)c1c(F)cc(NCc2c(F)cccc2CN2CC3(COC3)C2)cc1F [Example 153, 4-((2-((2-oxa-6-azaspiro[3.3]heptan-6-yl)methyl)-6-fluorobenzyl)amino)-2,6-difluoro-N-(thiazol-4-yl)benzenesulfonamide formate]			30	
O=S(=O)(Nc1cscn1)c1c(F)cc(NCc2c(F)cccc2CN2CCCC2)cc1F [Example 166, 2,6-difluoro-4-((2-fluoro-6-(pyrrolidin-1-ylmethyl)benzyl)amino)-N-(thiazol-4-yl)benzenesulfonamide formate]			15.2	
COC1CN(Cc2cccc(F)c2CNc2cc(F)c(S(=O)(=O)Nc3cscn3)c(F)c2)C1 [Example 171, 2,6-difluoro-4-((2-fluoro-6-((3-methoxyazetidin-1-yl)methyl)benzyl)amino)-N-(thiazol-4-yl)benzenesulfonamide formate]			16.8	
COc1ccc(F)c([C@H](C)Nc2cc(F)c(S(=O)(=O)Nc3cscn3)c(F)c2)c1 [Example 238, (S)-2,6-difluoro-4-((1-(2-fluoro-5-methoxyphenyl)ethyl)amino)-N-(thiazol-4-yl)benzenesulfonamide]		6.45		
C[C@H](Nc1ccc(S(=O)(=O)Nc2cscn2)cc1C(F)(F)F)c1cc(F)ccc1F [Example 274, (S)-4-((1-(2,5-difluorophenyl)ethyl)amino)-N-(thiazol-4-yl)-3-(trifluoromethyl)benzenesulfonamide]			4.6	
CCc1cc(S(=O)(=O)Nc2cscn2)c(F)cc1N[C@@H](C)c1cc(F)ccc1F [Example 297, (S)-4-((1-(2,5-difluorophenyl)ethyl)amino)-5-ethyl-2-fluoro-N-(thiazol-4-yl)benzenesulfonamide]			8.63	

Continued, in another order:

IC50 (NaV1.6) [µM]	IC50 (NaV1.1) [µM]	Compound	IC50 (NaV1.5; [1]) [µM]	IC50 (NaV1.5) [µM]
0.12	0.784	CC[C@H](Nc1cc(F)c(S(=O)(=O)Nc2nccs2)cc1Br)c1ccccc1 [Example 1, (S)-5-bromo-2-fluoro-4-((1-phenylpropyl)amino)-N-(thiazol-2-yl)benzenesulfonamide]	8.92	
0.308	0.494	N#Cc1ccccc1CNc1cc(F)c(S(=O)(=O)Nc2nccs2)cc1Cl [Example 17, 5-chloro-4-((2-cyanobenzyl)amino)-2-fluoro-N-(thiazol-2-yl)benzenesulfonamide]	8.46	
0.462	2.99	O=S(=O)(Nc1ncns1)c1ccc(NCc2ccccc2)c(Cl)c1 [Example 33, 4-(Benzylamino)-3-chloro-N-(1,2,4-thiadiazol-5-yl)benzenesulfonamide]	25.8	
1.27	0.84	CC(CNc1ccc(S(=O)(=O)Nc2ncns2)cc1Cl)c1ccccc1 (stereo not drawn) [Example 34, 3-chloro-4-((2-phenylpropyl)amino)-N-(1,2,4-thiadiazol-5-yl)benzenesulfonamide]	4.91	
0.839	0.301	O=S(=O)(Nc1ncns1)c1ccc(N[C@@H]2CCc3ccccc32)c(Cl)c1 [Example 35, (R)-3-chloro-4-((2,3-dihydro-1H-inden-1-yl)amino)-N-(1,2,4-thiadiazol-5-yl)benzenesulfonamide]	8.69	
1.4	1.34	O=S(=O)(Nc1ncns1)c1ccc(N[C@H]2CCc3ccccc32)c(Cl)c1 [Example 36, (S)-3-chloro-4-((2,3-dihydro-1H-inden-1-yl)amino)-N-(1,2,4-thiadiazol-5-yl)benzenesulfonamide]	5.12	
1.66	0.999	O=S(=O)(Nc1nccs1)c1cc(Cl)c(N[C@H]2CCCc3ccccc32)cc1F [Example 46, (S)-5-chloro-2-fluoro-4-((1,2,3,4-tetrahydronaphthalen-1-yl)amino)-N-(thiazol-2-yl)benzenesulfonamide]	7.04	
0.169	1.28	C[C@H](Nc1cc(F)c(S(=O)(=O)Nc2nccs2)cc1Cl)c1cccc(Cl)c1 [Example 50, (S)-5-chloro-4-((1-(3-chlorophenyl)ethyl)amino)-2-fluoro-N-(thiazol-2-yl)benzenesulfonamide]	6.07	
0.741	0.726	C[C@H](Nc1cc(F)c(S(=O)(=O)Nc2nccs2)cc1Cl)c1ccc(F)c(F)c1 [Example 53, (S)-5-chloro-4-((1-(3,4-difluorophenyl)ethyl)amino)-2-fluoro-N-(thiazol-2-yl)benzenesulfonamide]	6.89	
0.152	2.53	CCC(Nc1cc(F)c(S(=O)(=O)Nc2nccs2)cc1Cl)c1cccnc1 (stereo not drawn) [Example 58, 5-chloro-2-fluoro-4-((1-(pyridin-3-yl)propyl)amino)-N-(thiazol-2-yl)benzenesulfonamide]	7.09	
